As a reminder, the Tmax is the time at which the peak concentration occurs. Broadly, the Cmax is the maximum level reached in the sampled fluid or tissue.

Data on nine compounds can be found in US9820988B2, “Treatment of epileptic disorders in feline animals” (Boehringer Ingelheim Vetmedica GmbH, priority 2014, dated 2017).

The test system of one data set is treated cats. The conditions noted are these: cited from earlier work.
In data set [1] the test system is feline amygdala or hippocampal kindled seizures. The note with it: partial onset and secondarily generalized limbic seizures; cited from earlier work.
Data set [2] in a line: Pharmacokinetics of imepitoin in cats after oral administration (Example 1). The format is in vivo, cat. The conditions noted are these: for Tmax / Cmax / AUC(0-t): po; for Tmax: 30 mg/kg; for Cmax / AUC(0-t): Day 0, first dose of 30 mg/kg; for AUC(0-t): read-out: AUC0-6h. How it is done: FIG. 1 Mean plasma concentration-time curves of imepitoin after the first oral dose of 30 mg/kg imepitoin in male (M) and female cats (F) at Day 0, Day 14 and Day 29 (semi-logarithmic scale).
When administered orally at a preferred dose of e.g. 30 mg/kg bodyweight twice daily (60 mg/kg bodyweight daily dose) imepitoin the highest plasma concentration […] is reached in median 1 hour (range 0.5 to 3 hours) after administration, in most cases 1 hour.
Corresponding AUC0-6h-values are 28001 ng·h/mL and 24467 ng·h/mL, respectively.

Data set [3] has as its system clinically healthy male and female cats. The data set can be described thus: Safety 1: tolerance in clinically healthy cats after repeated oral administration for 30 days. The format is in vivo, cat. From the text:
In a randomized, controlled, blinded study the tolerance of imepitoin is investigated in clinically healthy male and female cats after repeated oral administration for 30 days.
Twelve 1-3 years old, male and female domestic short hair cats with a body weight range of 2.8-4.4 kg are assigned to this study. The animals are randomly allocated to two groups, three male and three female animals per group. The test article (imepitoin) is orally administered to the animals of group II at a target dose of 30 mg imepitoin/kg bodyweight twice daily at an interval of 8-12 h on days 0-29. Group I is left untreated serving as controls.

Data set [4] shares this test system. The data set can be described thus: Safety 2: repeated oral administration of 40 and 80 mg/kg twice daily for 30 days, placebo controlled. The format is in vivo, cat. How it is done: FIG. 3 Measurement of Alkaline Phosphatase (AP) in serum following administration of imepitoin in doses of 40 or 80 mg/kg bodyweight twice daily, or placebo. AP is routinely used to judge liver function and diagnose liver pathologies, and an elevated AP is indicative for a variety of diseases. […] Day 0 reflects measurement before treatment start.
Eighteen 9 months old, male and female domestic short hair cats with a body weight range of 2.3-4.9 kg are assigned to this study. The animals are allocated to three test groups employing a pseudo-random body weight stratification procedure that yielded groups with approximately equal mean body weight, with three male and three female animals per group. The test article (imepitoin) is orally administered to the animals at a target dose of 40 mg imepitoin/kg bodyweight and 80 mg imepitoin/kg bodyweight twice daily at an interval of 8-12 h on days 0-30. The third group receives visually identical placebo tablets, to avoid identification of the Placebo Group.
Physical examination a day before treatment start and on study days 7, 14 and 30 includes body temperature (rectal), ocular system, musculoskeletal system, cardiovascular system, reproductive system, lymphatic system, behavior, nervous system, integumentary system, respiratory system, urinary system and gastro-intestinal system. In addition, blood and urine samples are analyzed before treatment and after 30 days.

For another data set, the system named is cats with epilepsy. The data set can be described thus: Efficacy 1: two cats diagnosed with epilepsy, severe generalized seizures. The format is in vivo, cat. The method, then:
Two cats are diagnosed with epilepsy, having severe generalized seizures.
The first cat, a 14 year old European Short-Hair cat, had two severe generalized seizures. Both lasted around two minutes, the cat lost consciousness and was disoriented after the seizure. In addition, a fibrosarcoma and hyperthyroidism was diagnosed. The cat was treated twice a day with 100 mg imepitoin, being a dose of 25 mg/kg bodyweight. […] This resolved spontaneously after 10 days of treatment.
The second cat, 7 years old, experienced two generalized seizures on two consecutive days, and the diagnosis was epilepsy of unknown cause. The cat appeared to be sleepier in the time before occurrence of first seizure.

Data set [5] deals with feline patients with epilepsy. Put plainly: Efficacy 2: seizure frequency and severity in feline patients versus untreated status at diagnosis. The format is in vivo, cat. The source says: In some animals, treatment with current standard of care, phenobarbital, is not effective and results in frequent severe seizures despite high-dose treatment.
In data set [6] the test system is cats with drug resistant epilepsy. The data set can be described thus: Efficacy 4: cats with drug-resistant (phenobarbital) epileptic disorders switched to imepitoin. The format is in vivo, cat. How it is done:
Cats with epileptic disorders are treated with increasing doses of phenobarbital, starting from 3 mg/kg bodyweight twice daily up to the maximum tolerated dose. […] According to this treatment failure this represents drug-resistant epileptic disorders. The treatment of these cats with drug resistant epilepsy is now changed to imepitoin, provided at high doses as for example 30 mg/kg bodyweight twice daily.

Data set [7] relates to cats with epileptic disorders. The data set can be described thus: Efficacy 3: imepitoin versus phenobarbital in two groups of cats with epileptic disorders.
The test system of another data set is healthy cats. The conditions noted are these: 20 mg/kg dose; cited from earlier work.
[8] abbreviates: female, domestic short hair, plasma, females (n=3).
[9] abbreviates: male, domestic short hair, plasma, males (n=3).
Setting [10] is: 30 mg/kg bodyweight twice daily, days 0-29.
Where [11] appears, read: 40 and 80 mg/kg body weight twice daily for 30 days.
Where [12] appears, read: 40 and 80 mg/kg body weight twice daily, after 30 days.
Where [13] appears, read: second cat, 10 mg/kg bodyweight twice daily.
The mark [14] stands for this setting: second cat, 20 mg/kg bodyweight twice daily.
[15] abbreviates: imepitoin 30 mg/kg twice daily, phenobarbital 3.5 mg/kg twice daily.

Like-named read-outs stand apart in the source and are kept apart here.

Turning to `[Br-].[K+]` [Bromide], in the data set with treated cats (cats), the “treated cats with idiosyncratic allergic pneumonitis” value is given as 35-42% and the “treated cats with seizures controlled” value is given as “about 35%”.

`Cl.O=C(O)C1CCCN(CCC=C(c2ccccc2)c2ccccc2)C1` (stereo not shown) [SKF89976A]: in data set [1], the “anticonvulsant effect on kindled seizures” value (shortened to “anticonvulsant effect”) is listed as “potent anticonvulsant effects”.

For the compound `CC[C@@H](C(N)=O)N1CCCC1=O` [Levetiracetam], the “efficacy as add-on therapy” value in the data set on treated cats (cats with refractory epilepsy under phenobarbital treatment, 10 cats) is “somewhat effective”.

Consider `O=C1N=C(N2CCOCC2)CN1c1ccc(Cl)cc1` [imepitoin, 1-(4-chlorophenyl)-4-(4-morpholinyl)-2,5-dihydro-1H-imidazol-2-one], for which the “accumulation upon long-term BID dosing” value in [2] (30 mg/kg twice daily, Days 0-29) is given as “no accumulation occurs”. In [2] (after 14 and 29 days of twice daily dosing), the “exposure compared to the first dosing day” value was “slightly lower exposure”. Further, in data set [2] (both sexes, domestic short hair, plasma, oral, 30 mg/kg bodyweight twice daily, read-out: tMax, median), the time of peak concentration (Tmax) came out at 1 h. Besides, the time to peak (Tmax) in [2] (both sexes, domestic short hair, plasma, oral, 30 mg/kg bodyweight twice daily, read-out: tMax, range) lay in the range of 0.5 to 3 h. In data set [2] (both sexes, domestic short hair, plasma, oral, 30 mg/kg bodyweight twice daily, read-out: half-life time t1/2 (converted)), the half-life was 1.5 h. In [2] (setting [8]), the peak level (Cmax) was 6640 ng/mL and the AUC(0-t) amounted to 24500 ng·h/mL. Besides, in data set [2] (setting [9]), the Cmax is 7050 ng/mL and the AUC(0-t) stood at 28000 ng·h/mL. In addition, the “time of last measurable concentration” value in data set [2] (oral 30 mg/kg) is given as “more than 18 hours”. The “liver enzyme measurements versus untreated control” value in [3] (30 mg/kg bodyweight twice daily, FIGS. 2A+2B) was “no difference between imepitoin-treated and untreated (control) animals”. Also, in data set [3] (setting [10]), the Mortality entry was “not observed”; the “effect on body weight development, food and water consumption, heart rate, respiratory rate and laboratory parameters (hematology, clinical chemistry, urinalysis)” value is given as “No evidence of a clear effect”; the sedation result is reported as “No sedation is observed in any animal”. In addition, the “animals with temporary vomitus or choking” value in data set [3] (30 mg/kg twice daily, from the second week of treatment onwards) is given as 3 of 6. In addition, in data set [4] (setting [11]), the “behavioral changes or sedation” value is “not noted”; the considerable adverse events entry was “no considerable adverse events are observed”; the emesis result is “intermittently observed in the second and third week of treatment”; the tolerability entry is given as “well tolerated by all cats”. For the same compound, in data set [4] (setting [12]), the “hematological or biochemical abnormalities in blood examination” value is reported as “No hematological or biochemical abnormalities are noted” and the urine analysis entry is “physiological results”. Moreover, the “Alkaline Phosphatase (AP) in serum” value in data set [4] (40 or 80 mg/kg bodyweight twice daily, FIG. 3) is on record as “in the physiological range with normal variance”. Besides, the considerable adverse events entry in the data set on cats with epilepsy (first cat, 25 mg/kg bodyweight twice a day) is listed as “No considerable adverse events were observed”. For the same compound, in the data set on cats with epilepsy (first cat, 25 mg/kg bodyweight twice a day, initially), the tiredness entry was “tiredness 1-1.5 hours after application of the drug, which lasted for about two hours”. Also, the “duration of complete seizure freedom (observation period)” value in the data set with cats with epilepsy (first cat, 25 mg/kg then 20 mg/kg bodyweight twice a day) was determined as 6 months. In the data set with cats with epilepsy (first cat, 14 years, 100 mg (25 mg/kg bodyweight) twice a day), the seizures under treatment entry is given as “no further seizures”. In the data set with cats with epilepsy (first cat, dose reduced to 20 mg/kg bodyweight after three months), the “tiredness after dose reduction” value was “the tiredness disappeared”. In the data set with cats with epilepsy (setting [13]), the seizures under treatment result is given as “experienced again a seizure” and the tiredness result was “resolved the tiredness”. Further, in the data set on cats with epilepsy (setting [14]), the “duration of complete seizure freedom (observation period)” value is given as 2.5 months and the “tiredness or other adverse events” value is reported as “No tiredness or other adverse events were observed”. The tiredness result in the data set with cats with epilepsy (second cat, 30 mg/kg bodyweight twice a day) is given as “showed the tiredness observed in the first cat already after treatment start”. Moreover, the response to treatment result in the data set on cats with epilepsy (second cat, 7 years, 30 mg/kg bodyweight twice a day) is listed as “responded immediately to treatment”. Moreover, the “seizure frequency and severity compared to untreated status at diagnosis” value in [5] (30 mg/kg bodyweight twice daily) is given as “significantly reduced”. In addition, the “cats achieving seizure freedom” value in data set [5] (30 mg/kg bodyweight twice daily at an interval of 8-14 hours) is recorded as “at least 40%”. In addition, the considerable adverse events result in data set [5] (30 mg/kg bodyweight twice daily, seizure-free cats) is “do also not experience considerable adverse events”. Also, the “seizure frequency and/or severity in animals in which phenobarbital is not effective” value in data set [5] (20 to 60 mg/kg bodyweight two- or three-times daily) is “reduces seizure frequency and/or severity significantly”. Moreover, the “reduction of seizure frequency” value in data set [6] (after change to imepitoin 30 mg/kg bodyweight twice daily, in most cases) is on record as “at least 50%”. Besides, in data set [6] (cats with uncontrolled or continuing seizures under phenobarbital), the “seizure status after transition from phenobarbital to imepitoin monotherapy” value is “became seizure free”. In [7] (imepitoin 30 mg/kg bodyweight twice daily), the “seizure freedom among well controlled cats” value is recorded as “the majority of them reach seizure freedom”. Also, in data set [7] (setting [15]), the “cats poorly controlled / disease not adequately controlled” value is reported as “about 15%” and the “cats with well controlled epilepsy/seizures” value came to 85%.

Take `NC(=O)CCC/N=C(\c1ccc(Cl)cc1)c1cc(F)ccc1O` [progabide]: the “anticonvulsant effect” value in [1] is given as “potent anticonvulsant effects”.

With `NCC(CC(=O)O)c1ccc(Cl)cc1` (stereo not shown) [baclofen], the “anticonvulsant effect” value in [1] is on record as “did not show anticonvulsant effects”.

Take `C=CC(N)CCC(=O)O` (stereo not shown) [gamma-vinyl GABA]: in data set [1], the “anticonvulsant effect” value was “potent anticonvulsant effects”.

For `CCC1(c2ccccc2)C(=O)NC(=O)NC1=O` [phenobarbital], the “treated cases with sedation” value in the data set with treated cats (cats, recent study (Pakozdy et al. 2013)) is reported as “over 40%”. Further, in data set [7] (setting [15]), the “cats poorly controlled / disease not adequately controlled” value is 30%, the “cats with well controlled epilepsy/seizures” value is listed as 70% and the “treated cats experiencing at least one adverse event” value was found to be 65%. Moreover, the “treated cats experiencing sedation as side effect” value in data set [7] (phenobarbital 3.5 mg/kg bodyweight twice daily) is recorded as “approximately 40%”.

With `NS(=O)(=O)Cc1noc2ccccc12` [zonisamide], the “share of healthy cats with adverse reactions (anorexia, diarrhea, vomiting, somnolence, ataxia)” value with healthy cats is given as “Approximately half”.
